According to PubChem BioAssay AID330 (DTP/NCI, 2004):
Values joined by “and” are separate entries in the source; they are usually repeats but may differ in a detail not shown here. Identical values can stand only once. Inconclusive results and toxic doses are left out. How the source made its calls: active means survival T/C of 150% or more; inactive means T/C below 125% in these data. Peptide text beside a SMILES is read from it. * marks the point of attachment. Boc = CC(C)(C)OC(=O)*

Test system: P388 leukemia ip, CD2F1 mice, survival T/C
Assay: NCI In Vivo Anticancer Drug Screen. Data for tumor model P388 Leukemia (intraperitoneal) in CD2F1 (CDF1) mice
Conditions: endpoint: median survival time, higher = longer survival
How it was run: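 Mice carrying the transplanted tumor received test compound or vehicle. Survival was recorded in each group, and the value is the treated-group measurement divided by that of the vehicle-treated control group.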

[1] = dose: 50.0 mg/kg/injection, schedule: Q01DX005 (ip), vehicle: Klucel (hydroxypropylcellulose) (HPC)
[2] = dose: 100.0 mg/kg/injection, schedule: Q01DX005 (ip), vehicle: Klucel (hydroxypropylcellulose) (HPC)
[3] = dose: 50.0 mg/kg/injection, schedule: Q04DX003 (ip), vehicle: saline with Tween-80
[4] = dose: 100.0 mg/kg/injection, schedule: Q04DX003 (ip), vehicle: saline with Tween-80
[5] = dose: 200.0 mg/kg/injection, schedule: Q04DX003 (ip), vehicle: saline with Tween-80
[6] = dose: 60.0 mg/kg/injection, schedule: Q01DX005 (ip), vehicle: saline with Tween-80
[7] = dose: 120.0 mg/kg/injection, schedule: Q01DX005 (ip), vehicle: saline with Tween-80
[8] = dose: 240.0 mg/kg/injection, schedule: Q01DX005 (ip), vehicle: saline with Tween-80
[9] = dose: 50.0 mg/kg/injection, schedule: Q04DX003 (ip), vehicle: Klucel (hydroxypropylcellulose) (HPC)
[10] = dose: 50.0 mg/kg/injection, schedule: Q04DX003 (ip), vehicle: saline
[11] = dose: 100.0 mg/kg/injection, schedule: Q04DX003 (ip), vehicle: saline

Measured: T/C

Cc1cccc(C(O)(c2cccc(C)c2)C2(O)CCN(C)CC2)c1
inactive: dose: 25.0 mg/kg/injection, schedule: Q01DX005 (ip), vehicle: Klucel (hydroxypropylcellulose) (HPC) 98 % of control | [1] 98 % of control | [2] 102 % of control

CCOc1ccc(N=Nc2c(O)n(-c3ccc(Br)cc3)c(=S)n(-c3ccccc3)c2=O)cc1
inactive: dose: 100.0 mg/kg/injection, schedule: Q01DX001 (ip), vehicle: saline with Tween-80 107 % of control | dose: 200.0 mg/kg/injection, schedule: Q01DX001 (ip), vehicle: saline with Tween-80 98 % of control | dose: 400.0 mg/kg/injection, schedule: Q01DX001 (ip), vehicle: saline with Tween-80 100 % of control

O=C(O)c1cccc([N+](=O)[O-])c1C(=O)O
inactive: dose: 25.0 mg/kg/injection, schedule: Q04DX003 (ip), vehicle: saline with Tween-80 103 % of control | [3] 108 % of control | [4] 103 % of control | [5] 94 % of control

O=C(Nc1cccc(Cl)c1Cl)SCCSC(=O)Nc1cccc(Cl)c1Cl
inactive: dose: 50.0 mg/kg/injection, schedule: Q01DX009 (ip), vehicle: gum acacia 92 % of control | dose: 100.0 mg/kg/injection, schedule: Q01DX009 (ip), vehicle: gum acacia 100 % of control | dose: 200.0 mg/kg/injection, schedule: Q01DX009 (ip), vehicle: gum acacia 96 % of control

CC(C)N1CCOC1c1ccccc1 (stereo not given)
inactive: dose: 50.0 mg/kg/injection, schedule: Q04DX003 (ip), vehicle: saline sonified 109 % of control | dose: 100.0 mg/kg/injection, schedule: Q04DX003 (ip), vehicle: saline sonified 118 % of control | dose: 200.0 mg/kg/injection, schedule: Q04DX003 (ip), vehicle: saline sonified 109 % of control

CC(C)(Cl)C1ON1C(C)(C)C (stereo not given)
inactive: [6] 107 % of control | [7] 107 % of control | [8] 108 % of control

CCOCCOCCOC(C)Oc1ccccc1OC (stereo not given)
inactive: [6] 100 % of control | [7] 104 % of control | [8] 106 % of control

CNC(=O)OCc1c(COC(=O)NC)c2n(c1C)CCc1ccccc1-2
active: dose: 12.5 mg/kg/injection, schedule: Q01DX009 (ip), vehicle: distilled water + Tween-80 153 % of control

FC(F)(F)c1ccccc1N=Nc1c(-c2ccccc2)nn(C(=S)S)c1-c1ccccc1
inactive: dose: 100.0 mg/kg/injection, schedule: Q04DX002 (ip), vehicle: saline with Tween-80 93 % of control | dose: 200.0 mg/kg/injection, schedule: Q04DX002 (ip), vehicle: saline with Tween-80 91 % of control | dose: 400.0 mg/kg/injection, schedule: Q04DX002 (ip), vehicle: saline with Tween-80 100 % of control

CC(C)(C)OC(=O)NCC(=O)NCC(=O)O (Boc-Gly-Gly-OH)
inactive: dose: 50.0 mg/kg/injection, schedule: Q01DX005 (ip), vehicle: saline 102 % of control | dose: 100.0 mg/kg/injection, schedule: Q01DX005 (ip), vehicle: saline 102 % of control | dose: 200.0 mg/kg/injection, schedule: Q01DX005 (ip), vehicle: saline 101 % of control

COc1ccc(NC2=NCCS2)cc1
inactive: [3] 100 % of control | [4] 100 % of control | [5] 100 % of control

O=c1c2ccccc2c(=O)n2n1C1C=CC2C1
inactive: [1] 107 % of control | [2] 105 % of control | dose: 200.0 mg/kg/injection, schedule: Q01DX005 (ip), vehicle: Klucel (hydroxypropylcellulose) (HPC) 100 % of control

CCCCCC(=O)SCC(=O)OCC(=O)[C@]1(O)Cc2c(O)c3c(c(O)c2[C@@H](OC2CC(N)C(O)C(C)O2)C1)C(=O)c1c(OC)cccc1C3=O (stereo not given in full)
active: dose: 0.78 mg/kg/injection, schedule: Q01DX009 (ip), vehicle: water 169 % of control | dose: 1.56 mg/kg/injection, schedule: Q01DX009 (ip), vehicle: water 174 % of control and 179 % of control | dose: 3.13 mg/kg/injection, schedule: Q01DX009 (ip), vehicle: water 194 % of control and 209 % of control
inactive: dose: 6.25 mg/kg/injection, schedule: Q01DX009 (ip), vehicle: water 104 % of control

Cc1ccc(S(=O)(=O)OCC(C)(C)C)cc1
inactive: [9] 100 % of control | dose: 100.0 mg/kg/injection, schedule: Q04DX003 (ip), vehicle: Klucel (hydroxypropylcellulose) (HPC) 100 % of control | dose: 200.0 mg/kg/injection, schedule: Q04DX003 (ip), vehicle: Klucel (hydroxypropylcellulose) (HPC) 100 % of control | dose: 400.0 mg/kg/injection, schedule: Q04DX003 (ip), vehicle: Klucel (hydroxypropylcellulose) (HPC) 96 % of control

CN(C)CCCN1c2ccccc2Sc2ccc(Cl)cc21
inactive: dose: 1.0 mg/kg/injection, schedule: Q01DX005 (ip), vehicle: saline 99 % of control | dose: 2.0 mg/kg/injection, schedule: Q01DX005 (ip), vehicle: saline 96 % of control | dose: 4.0 mg/kg/injection, schedule: Q01DX005 (ip), vehicle: saline 104 % of control | dose: 6.25 mg/kg/injection, schedule: Q01DX009 (ip), vehicle: saline with Tween-80 95 % of control | dose: 7.5 mg/kg/injection, schedule: Q04DX003 (ip), vehicle: saline 112 % of control | dose: 8.0 mg/kg/injection, schedule: Q01DX005 (ip), vehicle: saline 106 % of control | dose: 12.5 mg/kg/injection, schedule: Q04DX003 (ip), vehicle: Klucel (hydroxypropylcellulose) (HPC) 111 % of control | dose: 12.5 mg/kg/injection, schedule: Q04DX003 (ip), vehicle: saline 108 % of control and 113 % of control and 120 % of control | dose: 15.0 mg/kg/injection, schedule: Q04DX003 (ip), vehicle: saline 120 % of control | dose: 16.0 mg/kg/injection, schedule: Q01DX005 (ip), vehicle: saline 106 % of control | dose: 25.0 mg/kg/injection, schedule: Q01DX009 (ip), vehicle: saline with Tween-80 100 % of control | dose: 25.0 mg/kg/injection, schedule: Q04DX003 (ip), vehicle: saline 111 % of control and 114 % of control and 118 % of control | dose: 32.0 mg/kg/injection, schedule: Q01DX005 (ip), vehicle: saline 116 % of control | [9] 108 % of control | [10] 105 % of control | dose: 64.0 mg/kg/injection, schedule: Q01DX005 (ip), vehicle: saline 105 % of control | [11] 99 % of control

C1=C(B2OCCNO2)CCCC1
inactive: dose: 100.0 mg/kg/injection, schedule: Q01DX001 (ip), vehicle: saline 101 % of control | dose: 200.0 mg/kg/injection, schedule: Q01DX001 (ip), vehicle: saline 96 % of control | dose: 400.0 mg/kg/injection, schedule: Q01DX001 (ip), vehicle: saline 104 % of control

Cc1c2oc3c(C)c(N)cc(C(=O)NC4C(=O)NC(C(C)C)C(=O)N5CCCC5C(=O)N(C)CC(=O)N(C)C(C(C)C)C(=O)OC4C)c3nc-2c(C(=O)NC2C(=O)NC(C(C)C)C(=O)N3CCCC3C(=O)N(C)CC(=O)N(C)C(C(C)C)C(=O)OC2C)c(N)c1=O (stereo not given)
inactive: dose: 0.01 mg/kg/injection, schedule: Q01DX009 (ip), vehicle: Klucel (hydroxypropylcellulose) (HPC) 102 % of control | dose: 0.02 mg/kg/injection, schedule: Q01DX009 (ip), vehicle: Klucel (hydroxypropylcellulose) (HPC) 110 % of control | dose: 0.04 mg/kg/injection, schedule: Q01DX009 (ip), vehicle: Klucel (hydroxypropylcellulose) (HPC) 115 % of control | dose: 0.08 mg/kg/injection, schedule: Q01DX009 (ip), vehicle: Klucel (hydroxypropylcellulose) (HPC) 93 % of control
active: dose: 0.3 mg/kg/injection, schedule: Q01DX009 (ip), vehicle: Klucel (hydroxypropylcellulose) (HPC) 190 % of control

COc1ccc(/C=C/C(=O)C(CN(C)C)CN(C)C)cc1OC
inactive: dose: 0.78 mg/kg/injection, schedule: Q01DX005 (ip), vehicle: Klucel (hydroxypropylcellulose) (HPC) 106 % of control | dose: 1.56 mg/kg/injection, schedule: Q01DX005 (ip), vehicle: Klucel (hydroxypropylcellulose) (HPC) 102 % of control | dose: 3.12 mg/kg/injection, schedule: Q01DX005 (ip), vehicle: Klucel (hydroxypropylcellulose) (HPC) 104 % of control

CC[C@]12C=CCN3CC[C@@]4(c5ccc(OC)cc5N(C)[C@H]4[C@@](O)(C(=O)OC)[C@@H]1OC(C)=O)[C@@H]32
inactive: [1] 98 % of control | [2] 97 % of control

O=c1oc2c(O)c(O)cc3c(=O)oc4c(O)c(O)cc1c4c23
inactive: dose: 50.0 mg/kg/injection, schedule: Q01DX009 (ip), vehicle: other 121 % of control | [10] 100 % of control | dose: 100.0 mg/kg/injection, schedule: Q01DX009 (ip), vehicle: other 123 % of control | [11] 103 % of control | dose: 200.0 mg/kg/injection, schedule: Q01DX009 (ip), vehicle: other 117 % of control and 123 % of control | dose: 200.0 mg/kg/injection, schedule: Q04DX003 (ip), vehicle: saline 112 % of control | dose: 400.0 mg/kg/injection, schedule: Q01DX009 (ip), vehicle: other 102 % of control and 108 % of control
